# In patent US10793509B2, “Compounds useful in the treatment of neoplastic diseases” (UNIVERSITÄT ZU KÖLN, priority 2013, dated 2020):
# What was measured:
# [1] = tested on: peripheral blood mononuclear cells (PBMCs) of healthy donors; experiment: AnnexinV/PI assay on PBMCs of healthy donors; type: cell-based; settings: Homo sapiens, PBMC; 24 h incubation, 0.01-100 μM, 5*10^6 cells/ml, normalized to DMSO control; read-out: AnnexinV/PI assay EC50 PBMCs
# Experimental: PBMCs or CLL cells (5*10^6 cells/ml) were incubated for 24 h with different compounds at concentrations from 0.01 to 100 μM. Cell survival was normalized to DMSO control [vehicle]. See Example 1.
# Primary CLL or peripheral blood mononuclear cells of healthy donors (5*10^6/ml) were incubated for 24 h with different compounds according to the invention and NO-ASA as a control. The compounds were added in different concentrations, in particular in concentrations from 0.01-100 μM. Cell survival was assessed by AnnexinV/PI assay (Kit commercially available, e.g. by Biotium Inc, USA; or Phoenix Flow Systems, US), the results were normalized to DMSO control [vehicle] and dose response curves were calculated using a non-linear regression model.
# [2] = tested on: MEC-1; experiment: CellTiter-Glo ATP assay, MEC-1 cell line; type: cell-based; settings: Homo sapiens, MEC1; 24 h, CellTiter-Glo
# Experimental: (§1) Several cell lines (n=5) were treated with different concentrations of p-NO-ASA, B9, B12 and B13 ranging between 0.01 μM and 1000 μM for 24 hours followed by addition of luminogenic CellTiter-Glo®-reagent. […] For each cell line the order of used compound in the bar chart is from left to right as following: p-NO-ASA, B9, B12, B13.
# (§2) Treatment success in CLL may depend on cytogenetic and molecular parameters as for instance del13q or TP53 gene disruption. Therefore, the NO-ASA derivatives were examined on (chronic) B cell lymphoma cell lines with different geno- and phenotypes (JVM3, EHEB, U2932, MEC-1, GRANTA-519). The cells were treated with concentrations between 0.01 and 1000 μM for 24 h followed by the addition of luminogenic CellTiter-Glo® reagent.
# [3] = tested on: GRANTA-519; experiment: CellTiter-Glo ATP assay, GRANTA-519 cell line; type: cell-based; settings: Homo sapiens, Granta-519; 24 h, CellTiter-Glo
# Experimental: as §1, §2
# [4] = tested on: U2932; experiment: CellTiter-Glo ATP assay, U2932 cell line; type: cell-based; settings: 24 h, 0.01-1000 μM
# Experimental: as §1, §2
# [5] = tested on: EHEB; experiment: CellTiter-Glo ATP assay, EHEB cell line; type: cell-based; settings: 24 h, 0.01-1000 μM
# Experimental: as §1, §2
# [6] = tested on: CLL cells without a TP53 mutation; experiment: FACS analysis of treated CLL cells without TP53 mutation; type: cell-based, human; settings: 24 h, 0.01-100 μM, FIG. 6
# Experimental: Isolated, primary CLL cells were treated for 24 h with the EC50 of the different compounds and the ATP-content was measured by flow cytometry. For each used compound the order of mean EC50 concentrations in the bar chart is from left to right as following: EC50 CLL cells TP53 unmut (unmutated=without mutation), EC50 CLL cells TP53 mut (mutated=with mutation).
# Further, the derivatives B9, B12 and B13 were tested in comparison to para-NO-ASA on CLL cells which harbour a TP53 mutation. The patient subgroup with a TP53 disruption is characterized by a considerable dismal prognosis. CLL cells of patients with and without the TP53 mutation were treated with five different concentrations (0.01, 0.1, 1, 10, 100 μM) of para-NO-ASA, B9, B12 and B13 for 24 h.
# [7] = tested on: acute myeloid leukemia cell line SH2; experiment: Viability assay (ATP content, CellTiter-Glo), SH2; type: cell-based; settings: 24 h
# Experimental: (§3) In the following experiment the possible therapeutic window for NO-ASA derivatives was investigated. […] The melanoma cell line MelJuso, the colon carcinoma cell line SW480, the small cell lung cancer cell line HCC44, the ovarian adenocarcinoma cell line COLO704 and the acute myeloid leukemia cell line SH2 were treated with concentrations of p-NO-ASA and B9, B12 and B13 in a range between 0.01 μM and 100 μM for 24 h, followed by addition of luminogenic CellTiter-Glo® reagent.
# (§4) Table accompanying Example 5. Overview of the EC50 values of cell survival analyzed by ATP content and Annexin V/PI assay. n.t.; not tested
# [8] = tested on: melanoma cell line MelJuso; experiment: Viability assay (ATP content, CellTiter-Glo), MelJuso; type: cell-based; settings: Homo sapiens, MEL-JUSO, 24 h
# Experimental: as §3, §4
# [9] = tested on: small cell lung cancer cell line HCC44; experiment: Viability assay (ATP content, CellTiter-Glo), HCC44; type: cell-based; settings: Homo sapiens, HCC44, 24 h
# Experimental: as §3, §4
# [10] = tested on: ovarian adenocarcinoma cell line COLO704; experiment: Viability assay (ATP content, CellTiter-Glo), COLO704; type: cell-based; settings: COLO 704, 24 h
# Experimental: as §3, §4
# [11] = tested on: acute myeloid leukemia cell line SH2; experiment: Annexin V/PI assay, SH2; type: cell-based; settings: 24 h
# [12] = tested on: melanoma cell line MelJuso; experiment: Annexin V/PI assay, MelJuso; type: cell-based; settings: Homo sapiens, MEL-JUSO, 24 h
# [13] = tested on: ovarian adenocarcinoma cell line COLO704; experiment: Annexin V/PI assay, COLO704; type: cell-based; settings: COLO 704, 24 h
# [14] = tested on: SW480, MelJuso, HCC44, SH2 and COLO704 cell lines; type: cell-based; settings: 24 h, 0.01-100 μM
# Experimental: as §3
# [15] = tested on: several cancer cell lines; experiment: Apoptosis (Annexin V/PI) assay, panel of cancer cell lines; type: cell-based; settings: range over the cancer cell lines, 24 h; read-out: concentrations inducing apoptosis in different diseases (apoptosis array)
# [16] = tested on: phosphorylated NFkappaBp65 protein; experiment: Western blot of NFkappaB phosphorylation status in CLL cells; type: cell-based, human; settings: 3 h
# Experimental: CLL cells were treated with B1, B9, B12 and B13 (0.1 μM, 1 μM, 10 μM) for 3 h. Untreated and DMSO (1%) treated cells served as control. GAPDH=loading control.
# The BCR signalling pathway plays an important pathogenic role in CLL and lymphomas leading often to a constitutive active NFkappaB (in this state NFkappaB is phosphorylated). Therefore the influence of the derivatives on the phosphorylation status of NFkappaB was analyzed by Western Blot. CLL cells were treated with 0.1 μM, 1 μM or 10 μM of each derivate, respectively, for 3 h. CLL cells were treated with B1, B9, B12 and B13 (0.1 μM, 1 μM, 10 μM) for 3 h. Untreated and DMSO (1%) treated cells served as control. GAPDH=loading control.
compound,measurement,setting,value
"O=C(Oc1ccc(CO[N+](=O)[O-])cc1)c1ccccc1 [B9, 4-((nitrooxy)methyl)phenyl benzoate]",EC50,[1],79.5 µM
same,EC50,[2],6.62 µM
same,EC50,[3],2280 nM
same,ATP content in U2932,[4],reduced ATP content
same,ATP content in EHEB,[5],reduced ATP content
same,effect on CLL cells without a TP53 mutation,[6],great effect
same,EC50,[7],160 nM
same,EC50,[8],890 nM
same,EC50,[9],2480 nM
same,EC50,[10],4.33 µM
same,EC50,[11],1930 nM
same,EC50,[12],8.76 µM
same,EC50,[13],7.25 µM
same,"ATP content in SW480, MelJuso, HCC44, SH2 and COLO704 cell lines",[14],reduced ATP content
same,EC50,[15],1 to 9 µM
same,reduction of NFkappaB activity (phosphorylated NFkappaBp65),"[16]; CLL cells, 0.1, 1, 10 μM",concentration dependent reduction
same,concentration inducing the reduction of NFkappaB p65 protein,[16]; CLL cells,10 µM
